Data on 2 compounds can be found in patent publication US8020343B2, “Enhanced shelf life and on seed stabilization of liquid bacterium inoculants” (Becker Underwood Inc., priority 2004, dated 2011).

One assay has as its system B. japonicum strain 532C. Put plainly: Sorbitol versus trehalose: on-seed rhizobial viability on soybean seed. Format: cell-based. Conditions: trehalose 30% w/v vs sorbitol 20% w/v; seeds at 18-20° C., time zero and 7 days, FIG. 13. The protocol:
An experiment was run to determine whether sorbitol or trehalose is better suited for application to soybean seeds with B japonicum. The following steps were performed: • 1. B. japonicum strain 532C was grown for 5 days in 1.5×Bj2 (a soybean fermentation medium) at 30° C. and 165 rpm. • 2. Either sorbitol (20% w/v) or trehalose (30% w/v) was added to the culture, and the cultures were maintained for 5 days at 30° C., 165 rpm. • 3. 2.7 ml/kg of either sorbitol or trehalose amended culture was applied to soybean seed. Seeds were evenly coated. • 4. Seeds were stored at 18-20° C. • 5. On-seed rhizobial viability was monitored at time zero and after 7 days

The next assay concerns Rhizobium leguminosarum. Kind of assay: Sugar/sugar alcohol study: bacteria counts on pea seeds. Format: cell-based. The conditions noted are these: 15° C., sorbitol vs sucrose vs trehalose. On the procedure:
Partially desiccated inoculant products were prepared by first growing Rhizobium leguminosarum in a Rhizobium leguminosarum bv. viceae culture medium. Two different culture mediums were used, 1×R1 and 1.5×R1, which are pea and lentil fermentation medium. The 1.5×R1 has 50% more media components than 1×R1. After 3 days culture growth, a sugar or a sugar alcohol was aseptically added to the culture. The amount of sugar or sugar alcohol added to the culture is shown in final concentration (weight/volume) in Table 9 below. The culture was then allowed a 2 day conditioning phase during which the culture continued to grow thereby creating the partially desiccated inoculant product. The partially desiccated inoculant product was then applied to pea seeds at a rate of 3.1 L inoculant product/1136 kg seed. The seeds were then mixed in a bag by shaking to evenly distribute the inoculant product on the seeds. The seeds were then stored at 15° C.
The bacteria counts were performed in a similar manner as the previous examples. That is, 50 seeds were put in 100 ml of phosphate buffer in a dilution bottle. The bottle was shaken for 5 minutes. 10 fold serial dilutions were made and 0.1 ml of proper dilution was spread onto nutrient medium plates. The viable bacteria cells on seed were calculated based on the colony numbers on the plates.

Take `OC[C@H]1O[C@H](O[C@H]2O[C@H](CO)[C@@H](O)[C@H](O)[C@H]2O)[C@H](O)[C@@H](O)[C@@H]1O` [trehalose]: the “suitability for application to B japonicum on soybean seeds (on-seed rhizobial viability)” value in the assay on B. japonicum strain 532C is on record as “better suited than sorbitol”.
For `OC[C@@H](O)[C@@H](O)[C@H](O)[C@@H](O)CO` [sorbitol], the “extension of on-seed shelf life of Rhizobium leguminosarum, ranking of sugars/sugar alcohols tested” value with Rhizobium leguminosarum is given as “top performing”.
